Reference: patent US20100311586A1, “HERBICIDAL COMBINATION” (Bayer CorpScience AG, priority 2007, published 2010)
Several values for one entry are separate records, joined by “and”; a condition that tells them apart may be missing. Equal entries are not always repeated.

Test system: Polygonum convolvulus
Experiment: Post-emergence action against weeds, greenhouse pot test, visual scoring
Type: in vivo
Conditions: 11 days after application, 0%=no control, 100%=complete control
Method: Seeds or rhizome pieces of monocotyledonous and dicotyledonous weeds were placed in sandy loam soil in plastic pots, covered with soil and cultivated in a greenhouse under good growth conditions. Three weeks after sowing, the test plants were treated at the 2- to 4-leaf stage. The compounds according to the invention, formulated as wettable powders or as emulsion concentrates, were sprayed onto the green parts of the plants in various dosages at a water application rate of 100 to 800 I/ha (converted). After the test plants had been left to stand in the greenhouse for 10 to 28 days under optimum growth conditions, the effect of the preparations was scored visually in comparison to untreated controls.
0%=no control 100%=complete control

With `Nc1c([N+](=O)[O-])ccc(Oc2ccccc2)c1Cl` [Compound B1-2, aclonifen] the “Polygonum convolvulus Control in %” value (100 g of ai/ha) was 20%.
In the case of `Cc1cc(Cl)ccc1O[C@H](C)C(=O)O` [Compound B4-5, mecoprop-P], the “Polygonum convolvulus Control in %” value (200 g of ai/ha) is reported as 50%.
With `O=C(O)COc1ccc(Cl)cc1Cl` [Compound B5-2, 2,4-D] the “Polygonum convolvulus Control in %” value (200 g of ai/ha) was 55%.
In the case of `Cc1cc(Cl)ccc1OCC(=O)O` [Compound B5-3, MCPA], the “Polygonum convolvulus Control in %” value (200 g of ai/ha) is reported as 50%.
`C#CCOC(=O)[C@@H](C)Oc1ccc(Oc2ncc(Cl)cc2F)cc1` [Compound B7-1, clodinafop-propargyl] was tested, and the “Polygonum convolvulus Control in %” value (20 g of ai/ha) was 5%.
In the case of `COC(=O)C(C)Oc1ccc(Oc2ccc(Cl)cc2Cl)cc1` (centres unmarked) [Compound B7-3, diclofop-methyl], the “Polygonum convolvulus Control in %” value (1000 g of ai/ha) is reported as 15%.
`CCOC(=O)[C@@H](C)Oc1ccc(Oc2nc3ccc(Cl)cc3o2)cc1` [Compound B7-5, fenoxaprop-P-ethyl] was tested, and the “Polygonum convolvulus Control in %” value (45 g of ai/ha) was 35%.
For “sodium salt of 2-iodo-N-[(4-methoxy-6-methyl-1,3,5-triazin-2-yl)carbamoyl]benzenesulfonamide [Compound A-2]”, the “Polygonum convolvulus Control in %” value (2.5 g of ai/ha) was 10% and 20%.
